# Laboratory results reported in patent publication US20240139213A1 (priority 2017, published 2024).
# Tested on: Subjects with a variety of atopic conditions
# Assay type: in vivo, human
# Parameters: key: a score of 1 was given if symptoms worsened; a score of 2 was given if there was no change in symptoms; a score of 3 was given if there was some improvement in symptoms; a score of 4 was given if there were marked improvement in symptoms
# Settings: Subject D; eosinophilic esophagitis and GERD; Vitamin D3 4000 IU for 9 months without a probiotic compound
smiles,measurement,value
C=C1CC[C@H](O)C/C1=C/C=C1\CCC[C@]2(C)[C@@H]([C@H](C)CCCC(C)C)CC[C@@H]12 [Vitamin D3],score on 4 point scale,2
